# Source: patent US20230069886A1, “AROMATIC SULPHONAMIDES DERIVATIVES THAT INHIBITS PDI A3, THEIR SYNTHESIS AND USE” (Uniwersytet Jagiellonski, priority 2020, published 2023)
# Columns and labels:
# Assay type in all cases: cell-based, human
# [1] = test system: MCF-7; assay: MTT antiproliferative assay, 72 h, with or without estradiol, MCF-7
# Method: (§1) Anticancer activity of selected compounds of invention, PDI A3-inhibitors has been also tested in vitro in antiproliferative assay in normoxic and hypoxic conditions as well in estrogen-stimulated cancer cells. In the experiment, cells were seeded on 96-well plates (Sarstedt, Germany) in appropriate culture medium at a density of 10^5 cells/mL 24 h before adding the tested compounds. Cells were treated with each compound in four concentrations in the range 0.1-100 μg/mL. […] After 72 h of compound treatment at 37° C., 5% CO2 humid atmosphere and in wo different oxygen level conditions: 21%—normal and <1%—hypoxia. In some experiments the MDA-MB-231 and MCF-7 cells were seeded with or without 200 nM estradiol and after 24 h the tested compounds were added. A previously described sulforhodamine B antiproliferative assay was used with minor modifications (Skehan P et al., 1990). Briefly, cells were fixed with 50 μL/well of 50% (w/v) trichloroacetic acid (Avantor Performance Materials, Gliwice, Poland). After 1 h incubation, plates were washed several times with tap water and 50 μL of 0.4% (w/v) solution of sulforhodamine B (Sigma-Aldrich, Germany) in 1% (v/v) acetic acid (Avantor Performance Materials, Gliwice, Poland) was added to each well. After 30 min incubation at room temperature, unbound dye was washed out with 1% (v/v) acetic acid, whereas bound dye was solubilized with 10 mM unbuffered TRIS (Avantor Performance Materials, Gliwice, Poland) solution. The entire procedure was performed using a BioTek EL-406 washing station (BioTek Instruments, USA). After additional 30 min, absorbance was read using a Biotek Hybrid H4 reader (BioTek Instruments, USA) at 540 nm wavelength. MTT assay was used alternatively for HL-60 cell line and in the experiment in which estrogens are added (specified in the table legend). Absorbance was measured using a Biotek Hybrid H4 reader at 570 nm wavelength for MTT assay.
# (§2) Compounds at each concentration were tested in triplicate in a single experiment and each experiment was repeated at least three times independently. Results are presented as mean IC50±SD.
# [2] = test system: MDA-MB-231; assay: MTT antiproliferative assay, 48 h, MDA-MB-231; settings: 48-hour exposition, read-out: Cytotoxicity, IC50, μM MDA-MB-231
# [3] = test system: HL-60; assay: MTT antiproliferative assay, 72 h, HL-60; settings: 72 hours exposition
# Method: as §1, §2
# [4] = test system: MDA-MB-231 cell transmigration across IL-1β-stimulated hLMVECs; assay: Transendothelial migration of MDA-MB-231 cells across hLMVEC monolayer; settings: IL-1β 10 ng/mL (6 hours)-stimulated hLMVECs, 24 h co-culture, FIG. 6
# Method: To assess whether compounds of invention, PDI A3-inhibitors are also effective as inhibitors of cancer cell transmigration through endothelium the transmigration assay with MDA-MB-231/lung microvascular endothelium was used as described previously (Stojak et al., 2018). Cell migration was assayed in 24-well, 6.5-mm internal-diameter Transwell plates (8.0 μm pore size; BD Pharmingen). Human lung microvascular endothelial cells (hLMVECs) were seeded into 24-well plates (seeding density 5×10^4 cells/insert) on the upper side of the filter and left to grow to confluence. After confluent monolayer formation, hLMVECs were pre-treated with 10 ng/mL IL-1β for 6 h. Prior to use in transmigration assay, cancer cells were pre-incubated with various concentrations (3, 10, 30, 50, 100 μM) of tested inhibitors of PDIA3, C-3390, C-3399 for 30 min. Then, MDA-MB-231 cells (each 5×10^4 per well) were placed into upper chambers and tested PDI inhibitors at various concentrations (1, 10, 30, 50, 100 μM) were given. Lower chambers were filled with medium containing chemoattractant (20% FBS or 100 ng/mL SDF-1α). After 24 h of co-culture, hLMVEC monolayers and non-migrating cancer cells on the upper surface of the membrane were removed. […] The cell number was determined by measuring the fluorescence using plate reader. […]
# [5] = test system: MDA-MB-231; assay: MTT antiproliferative assay, 72 h, with or without estradiol, MDA-MB-231
# Method: as §1, §2
# [6] = not pretreated with estradiol, 72 hours exposition, MTT
# [7] = pretreated with 200 nM estradiol, 72 hours exposition, MTT
structure (smiles),measurement,setting,value
"COC(=O)C1CN1S(=O)(=O)c1ccc2c(C=O)c(N(C)C)ccc2c1 (stereo not drawn) [Compound C-3390, Methyl 1-[[6-(dimethylamino)-5-formyl-2-naphthyl]sulfonyl]aziridine-2-calboxylate]",Lower sensitivity after treatment with estradiol in MCF-7,"[1]; estradiol (200 nM), Table 4",not observed
same,IC50 [μg/ml] MCF-7 normal,[1]; [6],3.2 ± 0.3 µg/mL
same,IC50 [μg/ml] MCF-7 +estradiol,[1]; [7],3.4 ± 0.3 µg/mL
same,IC50,[2],18 ± 0.1 µM
same,IC50 [μg/ml] HL-60 normal,[3],14.4 ± 0.7 µg/mL
same,Inhibition of MDA-MB-231 cell transmigration,[4],inhibited MDA-MB-231 cell transmigration
same,Sensitivity of MDA-MB-231 line after treatment with estradiol,"[5]; estradiol (200 nM), Table 4",slightly lower sensitivity
same,IC50 [μg/ml] MDA-MB-231 normal,[5]; [6],3.2 ± 0.2 µg/mL
same,IC50 [μg/ml] MDA-MB-231 +estradiol,[5]; [7],9.4 ± 3.5 µg/mL
